According to US20240400553A1, “AMINE BASED MATRIPTASE 2 INHIBITORS AND USES THEREOF” (Disc Medicine, Inc., priority 2023, published 2024):

Each compound was assayed against T1, Human Recombinant Matriptase 2 (Homo sapiens, UniProt Q8IU80) (assay: Matriptase 2 inhibition, fluorescence based assay (Method I)). Conditions: Table A; Ki of Matriptase-2 given as class symbols; read-out: Mat-2 Ki.
T1 construct: made in house
T1 sequence (Q8IU80 1-811): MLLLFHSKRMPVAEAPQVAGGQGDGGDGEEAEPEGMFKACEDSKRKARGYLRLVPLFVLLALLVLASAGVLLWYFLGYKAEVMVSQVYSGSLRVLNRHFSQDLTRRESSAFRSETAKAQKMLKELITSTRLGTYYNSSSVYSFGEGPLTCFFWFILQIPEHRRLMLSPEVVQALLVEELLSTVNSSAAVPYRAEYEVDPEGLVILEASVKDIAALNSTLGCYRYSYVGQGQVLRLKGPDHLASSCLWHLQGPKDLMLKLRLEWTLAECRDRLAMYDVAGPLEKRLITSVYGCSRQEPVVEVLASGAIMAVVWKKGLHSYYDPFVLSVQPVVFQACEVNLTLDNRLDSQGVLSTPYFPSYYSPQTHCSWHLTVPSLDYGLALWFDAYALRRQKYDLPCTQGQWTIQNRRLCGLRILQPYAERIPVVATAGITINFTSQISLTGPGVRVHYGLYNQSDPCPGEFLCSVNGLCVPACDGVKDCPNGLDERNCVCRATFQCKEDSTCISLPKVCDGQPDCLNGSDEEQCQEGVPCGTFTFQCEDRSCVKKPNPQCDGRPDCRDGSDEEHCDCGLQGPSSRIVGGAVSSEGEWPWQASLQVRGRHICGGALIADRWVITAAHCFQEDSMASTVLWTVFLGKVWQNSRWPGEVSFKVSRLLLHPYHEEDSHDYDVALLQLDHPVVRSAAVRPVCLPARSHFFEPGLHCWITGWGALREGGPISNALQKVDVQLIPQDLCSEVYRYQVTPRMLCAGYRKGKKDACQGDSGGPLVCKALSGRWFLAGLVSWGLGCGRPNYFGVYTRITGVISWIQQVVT
Type: biochemical
Method in brief: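 In-house recombinant enzyme (3.5 nM), preincubated 30 min with compound, then Boc-Gln-Ala-Arg-AMC substrate (62 μM) in 50 mM Tris pH 7.5, 150 mM NaCl, 0.01% gelatin, 1% DMSO, 25 °C. Fluorescence (Ex 360/Em 480 nm) read 60 min after substrate; IC50 from variable-slope sigmoidal fit of % inhibition.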

Structure (SMILES) | Ki [nM]
NCc1ccc2cc(C(=O)O)n(Cc3cc(NS(=O)(=O)Cc4cccnc4)cc4ccccc34)c2n1 [Compound 242, 6-(aminomethyl)-1-({3-[(pyridin-3-yl)methane-sulfonamido]naphthalen-1-yl}methyl)-1H-pyr-rolo[2,3-b]pyridine-2-carboxylic acid] | 100 to 500
Cc1conc1CS(=O)(=O)Nc1cc(Cn2c(C(=O)O)cc3ccc(CN)nc32)c2ccccc2c1 [Compound 243, 6-(aminomethyl)-1-({3-[(4-methyl-1,2-oxazol-3-yl)methanesulfonamido]-naphthalen-1-yl}methyl)-1H-pyrrolo[2,3-b]pyr-idine-2-carboxylic acid] | 100 to 500
Cn1cc(CS(=O)(=O)Nc2cc(Cn3c(C(=O)O)cc4ccc(CN)nc43)c3ccccc3c2)cn1 [Compound 244, 6-(aminomethyl)-1-({3-[(1-methyl-1H-pyrazol-4-yl)methanesulfonamido]-naphthalen-1-yl}methyl)-1H-pyrrolo[2,3-b]pyr-idine-2-carboxylic acid] | 100 to 500
NCc1ccc2cc(C(=O)O)n(Cc3cc(NS(=O)(=O)Cc4ccncc4)cc4ccccc34)c2n1 [Compound 245, 6-(aminomethyl)-1-({3-[(pyridin-4-yl)methane-sulfonamido]naphthalen-1-yl}methyl)-1H-pyr-rolo[2,3-b]pyridine-2-carboxylic acid] | 100 to 500
NCc1ccc2cc(C(=O)O)n(Cc3cc(NS(=O)(=O)Cc4c(F)cccc4F)cc4ccccc34)c2n1 [Compound 246, 6-(aminomethyl)-1-({3-[(2,6-difluorophenyl)-methanesulfonamido]-naphthalen-1-yl}meth-yl)-1H-pyrrolo[2,3-b]-pyridine-2-carboxylic acid] | 100 to 500
COc1ccc(Cl)cc1CS(=O)(=O)Nc1cc(Cn2c(C(=O)O)cc3ccc(CN)nc32)c2ccccc2c1 [Compound 247, 6-(aminomethyl)-1-({3-[(5-chloro-2-methoxy-phenyl)methanesulfon-amido]naphthalen-1-yl}-methyl)-1H-pyrrolo[2,3-b]pyridine-2-carboxylic acid] | 500 to 3000
CN1CCC(COC(=O)c2cc3ccc(CN)nc3n2Cc2cc(NS(=O)(=O)CC34CC(F)(C3)C4)cc3ccccc23)CC1 [Compound 248, (1-methylpiperidin-4-yl)-methyl 6-(aminomethyl)-1-{[3-({3-fluorobicyclo-[1.1.1]pentan-1-yl}-methanesulfonamido)-naphthalen-1-yl]methyl}-1H-pyrrolo[2,3-b]pyr-idine-2-carboxylate] | 500 to 3000
CN1CCC(COC(=O)c2cc3ccc(CN)nc3n2Cc2cc(NS(=O)(=O)CC3CCNCC3)cc3ccccc23)CC1 [Compound 249, (1-methylpiperidin-4-yl)methyl 6-(amino-methyl)-1-({3-{(piperi-din-4-yl)methanesul-fonamido]naphthalen-1-yl}methyl)-1H-pyr-rolo[2,3-b]pyridine-2-carboxylate] | 500 to 3000
Cc1cc(CS(=O)(=O)Nc2cc(Cn3c(C(=O)O)cc4ccc(CN)nc43)c3ccccc3c2)no1 [Compound 250, 6-(aminomethyl)-1-({3-[(5-methyl-1,2-oxazol-3-yl)methanesulfon-amido]naphthalen-1-yl}-methyl)-1H-pyrrolo[2,3-b]pyridine-2-carboxylic acid] | 500 to 3000
NCc1ccc2cc(C(=O)O)n(Cc3cc(NS(=O)(=O)Cc4c(Cl)cccc4Cl)cc4ccccc34)c2n1 [Compound 251, 6-(aminomethyl)-1-({3-[(2,6-dichlorophenyl)-methanesulfonamido]-naphthalen-1-yl}methyl)-1H-pyrrolo[2,3-b]pyr-idine-2-carboxylic acid] | 500 to 3000
NCc1ccc2cc(C(=O)O)n(Cc3cc(CS(=O)(=O)Cc4ccccc4)cc4ccccc34)c2n1 [Compound 252, 6-(aminomethyl)-1-{[3-(phenylmethanesulfon-ylmethyl)naphthalen-1-yl]methyl}-1H-pyrrolo-[2,3-b]pyridine-2-car-boxylic acid] | 500 to 3000
COCCN1CCC(CS(=O)(=O)Nc2cc(Cn3c(C(=O)OCC4CCN(C)CC4)cc4ccc(CN)nc43)c3ccccc3c2)CC1 [Compound 253] | 500 to 3000
Cc1nc(CS(=O)(=O)Nc2cc(Cn3c(C(=O)O)cc4ccc(CN)nc43)c3ccccc3c2)cs1 [Compound 256, 6-(aminomethyl)-1-({3-[(2-methyl-1,3-thiazol-4-yl)methanesulfon-amido]naphthalen-1-yl}-methyl)-1H-pyrrolo[2,3-b]pyridine-2-carboxylic acid] | 100 to 500
COC(=O)NCCNC(=O)c1cc2ccc(CN)nc2n1Cc1cc(NS(=O)(=O)CC[C@@H]2CCCN2)cc2ccccc12 [Compound 258, methyl N-(2-{[6-(amino-methyl)-1-[(3-{2-[(2S)-pyrrolidin-2-yl]ethane-sulfonamido}naphthalen-1-yl)methyl]-1H-pyr-rolo[2,3-b]pyridin-2-yl]-formamido}ethyl)car-bamate] | 100 to 500
CC(C)(C)OC(=O)N1CCC(CCS(=O)(=O)Nc2cc(Cn3c(C(=O)O)cc4ccc(CN)nc43)c3ccccc3c2)CC1 [Compound 274, 6-(aminomethyl)-1-{[3-(2-{1-[(tert-butoxy)car-bonyl]piperidin-4-yl}-ethanesulfonamido)naph-thalen-1-yl]methyl}-1H-pyrrolo[2,3-b]pyridine-2-carboxylic acid] | 500 to 3000

Other lines, results leading:

Ki [nM] | Structure (SMILES)
100 to 500 | NCc1ccc2cc(C(=O)O)n(Cc3cc(NS(=O)(=O)[C@H]4CCNC4)cc4ccccc34)c2n1 [Compound 259, 6-(aminomethyl)-1-({3-[(3S)-pyrrolidine-3-sul-fonamido]naphthalen-1-yl}methyl)-1H-pyrrolo-[2,3-b]pyridine-2-car-boxylic acid]
100 to 500 | NCc1ccc2cc(C(=O)OCCO)n(Cc3cc(NS(=O)(=O)CC[C@@H]4CCCN4)cc4ccccc34)c2n1 [Compound 260, 2-hydroxyethyl 6-(aminomethyl)-1-[(3-{2-[(2S)-pyrrolidin-2-yl]-ethanesulfonamido}naph-thalen-1-yl)methyl]-1H-pyrrolo[2,3-b]pyridine-2-carboxylate]
100 to 500 | NCc1ccc2cc(C(=O)O)n(Cc3cc(NS(=O)(=O)CCCn4cnnn4)cc4ccccc34)c2n1 [Compound 264, 6-(aminomethyl)-1-({3-[3-(1H-1,2,3,4-tetrazol-1-yl)propanesulfonamido]-naphthalen-1-yl}methyl)-1H-pyrrolo[2,3-b]pyr-idine-2-carboxylic acid]
100 to 500 | CCN(CC)CCS(=O)(=O)Nc1cc(Cn2c(C(=O)O)cc3ccc(CN)nc32)c2ccccc2c1 [Compound 265, 6-(aminomethyl)-1-({3-[2-(diethylamino)ethane-sulfonamido]naphthalen-1-yl}methyl)-1H-pyr-rolo[2,3-b]pyridine-2-carboxylic acid]
100 to 500 | CC(C)(C)S(=O)(=O)N1CCC(CS(=O)(=O)Nc2cc(Cn3c(C(=O)O)cc4ccc(CN)nc43)c3ccccc3c2)CC1 [Compound 267, 6-(aminomethyl)-1-[(3-{[1-(2-methylpropane-2-sulfonyl)piperidin-4-yl]-methanesulfonamido}-naphthalen-1-yl)methyl]-1H-pyrrolo[2,3-b]pyr-idine-2-carboxylic acid]
100 to 500 | CC(C)(C)OC(=O)N1CC[C@H](S(=O)(=O)Nc2cc(Cn3c(C(=O)O)cc4ccc(CN)nc43)c3ccccc3c2)C1 [Compound 268]
500 to 3000 | CCOC(=O)c1cc2ccc(CN)nc2n1Cc1cc(NS(=O)(=O)CC[C@@H]2CCCN2)cc2ccccc12 [Compound 269, ethyl 6-(aminomethyl)-1-[(3-{2-[(2S)-pyrrolidin-2-yl]ethanesulfonamido}-naphthalen-1-yl)methyl]-1H-pyrrolo[2,3-b]pyr-idine-2-carboxylate]
500 to 3000 | CC(C)OC(=O)c1cc2ccc(CN)nc2n1Cc1cc(NS(=O)(=O)CC[C@@H]2CCCN2)cc2ccccc12 [Compound 270, propan-2-yl 6-(amino-methyl)-1-[(3-{2-[(2S)-pyrrolidin-2-yl]ethane-sulfonamido}naphthalen-1-yl)methyl]-1H-pyrrolo-[2,3-b]pyridine-2-car-boxylate]
500 to 3000 | CN(C)CCOC(=O)c1cc2ccc(CN)nc2n1Cc1cc(NS(=O)(=O)CC2CCNCC2)cc2ccccc12 [Compound 271, 2-(dimethylamino)ethyl 6-(aminomethyl)-1-({3-[(piperidin-4-yl)meth-anesulfonamido]naph-thalen-1-yl}methyl)-1H-pyrrolo[2,3-b]pyridine-2-carboxylate]
500 to 3000 | C[C@@H]1OCCC1S(=O)(=O)Nc1cc(Cn2c(C(=O)O)cc3ccc(CN)nc32)c2ccccc2c1 (stereo partly drawn) [Compound 272, 6-(aminomethyl)-1-({3-[(2S)-2-methyloxolane-3-sulfonamido]naph-thalen-1-yl}methyl)-1H-pyrrolo[2,3-b]pyridine-2-carboxylic acid]
